Test results from patent US4002530A, “6-Aminopenicillanic acid derivative” (Recherche et Industrie Therapeutiques (R.I.T.), priority 1975, dated 1977).
Values after ≈ are worked out from the molar mass of the structure shown. Read-outs that look alike come from different tables or passages of the source.

Key:
Salmonella anatum = test: broth dilution test, minimum inhibitory concentration; assay type: cell-based; details: Salmonella enterica, about 20 hours at 35° C, tested as monoammonium salt
Aerobacter aerogenes = test: as above; assay type: cell-based; details: Klebsiella aerogenes, 20 h, read-out: Minimum Inhibitory concentration
[1] = system: Salmonella enteritidis 24; test: mice protection test; assay type: in vivo; details: Salmonella enterica, sc, 72 h, s.c., one hour after intravenous infection, observed 3 days, read-out: ED50 (total dose required to protect 50% of the infected mice)
Procedure: (§1) Comparative trials with ampicillin were performed in vivo according to the usual mice protection test procedure. The test compound was administered in graded dilutions to mice either subcutaneously (s.c.) in water or orally (or.) in combination with calcium carbonate one hour after intravenous infection with uniformly lethal doses of the test organism.

[2] = system: Staphylococcus aureus 663; test: mice protection test; assay type: in vivo; details: Staphylococcus aureus, 663, sc, 72 h; s.c., one hour after intravenous infection, observed 3 days; read-out: ED50 (total dose required to protect 50% of the infected mice)
Procedure: as §1

Escherichia coli 47 = test: mice protection test; assay type: in vivo; details: Escherichia coli, 47, sc, 72 h; s.c., one hour after intravenous infection, observed 3 days; read-out: ED50 (total dose required to protect 50% of the infected mice)
Procedure: as §1

Escherichia coli 9 = test: mice protection test; assay type: in vivo; details: Escherichia coli, 9, sc, 72 h; s.c., one hour after intravenous infection, observed 3 days; read-out: ED50 (total dose required to protect 50% of the infected mice)
Procedure: as §1

Proteus mirabilis 11 = test: mice protection test; assay type: in vivo; details: Proteus mirabilis, 11, sc, 72 h; s.c., one hour after intravenous infection, observed 3 days; read-out: ED50 (total dose required to protect 50% of the infected mice)
Procedure: as §1

Salmonella panama 20 = test: mice protection test; assay type: in vivo; details: Salmonella enterica, 20, sc, 72 h; s.c., one hour after intravenous infection, observed 3 days; read-out: ED50 (total dose required to protect 50% of the infected mice)
Procedure: as §1

[3] = system: Klebsiella pneumoniae SK&F 4200; test: mice protection test; assay type: in vivo; details: 72 h, one hour after intravenous infection, observed 3 days, read-out: ED50 (total dose required to protect 50% of the infected mice)
Procedure: as §1

[4] = system: Salmonella brandebourg 22; test: mice protection test; assay type: in vivo; details: Salmonella, 22, sc, 72 h; s.c., one hour after intravenous infection, observed 3 days; read-out: ED50 (total dose required to protect 50% of the infected mice)
Procedure: as §1

[5] = system: Vibrio parahaemoliticus 194; test: mice protection test; assay type: in vivo; details: Vibrio, 194, 72 h; oral with calcium carbonate, one hour after intravenous infection, observed 3 days; read-out: ED50 (total dose required to protect 50% of the infected mice)
Procedure: as §1

Shigella flexneri 25 = test: mice protection test; assay type: in vivo; details: Shigella flexneri, 25, sc, 72 h; s.c., one hour after intravenous infection, observed 3 days; read-out: ED50 (total dose required to protect 50% of the infected mice)
Procedure: as §1

in vivo [6] = test: in vivo; set-up: species or system mice; details: mouse, sc, 20 mg/kg
Description: (§2) Plasma samples were adequately diluted with sterile water and assayed according to the usual agar diffusion method, using Bacillus subtilis ATCC 6633 as the test organism.

Corynebacterium xerosis = test: broth dilution test, minimum inhibitory concentration; assay type: cell-based; details: about 20 hours at 35° C, tested as monoammonium salt
Pseudomonas aeruginosa = test: as above; assay type: cell-based; details: about 20 hours at 35° C, tested as monoammonium salt
[7] = system: Gram-positive and Gram-negative microorganisms; test: in vivo activity against microorganisms; set-up: species or system mice
Procedure: as §1

in vivo [8] = test: in vivo; set-up: species or system rats; details: rat, sc, 20 mg/kg
Description: as §2

[9] = system: Staphylococcus aureus Pen.resist.; test: broth dilution test, minimum inhibitory concentration; assay type: cell-based; details: penicillin resistant, about 20 hours at 35° C, tested as monoammonium salt
physchem = assay type: physicochemical
Description: Antibiotic RIT D-2214 can be colorimetrically assayed by the classical hydroxylamine method of penicillin assay. […] Recoveries were estimated according to the hydroxylamine assay method.

in vivo [10] = test: in vivo; set-up: species or system dogs; details: dog, sc, 20 mg/kg
Description: as §2

[11] = system: Bordetella bronchiseptica; test: broth dilution test, minimum inhibitory concentration; assay type: cell-based; details: about 20 hours at 35° C, tested as monoammonium salt
[12] = system: Gram-positive and Gram-negative bacteria; test: inhibitory activity against growth of bacteria; assay type: cell-based; details: Gram-positive and Gram-negative bacteria
Procedure: Antibiotic RIT D-2214 has been tested in form of the mono ammonium salt in position 3 of the penam nucleus and, for that reason, is herein below charcterized as this monoammonium salt.
The inhibitory levels were determined by the broth dilution test. A series of tubes containing varied concentrations of the monoammonium salt of antibiotic RIT D-2214 were inoculated with the test organism to determine the minimum concentration of the ammonium salt of antibiotic RIT D-2214 in mcg/ml. in the broth substrate which inhibited organism growth for a period of about twenty hours at 35° C.

Salmonella meleagridis = test: broth dilution test, minimum inhibitory concentration; assay type: cell-based; details: about 20 hours at 35° C, tested as monoammonium salt
Vibrio el tor = test: as above; assay type: cell-based; details: about 20 hours at 35° C, tested as monoammonium salt
Salmonella paratyphi = test: as above; assay type: cell-based; details: Salmonella enterica, 20 h, read-out: Minimum Inhibitory concentration
Alcaligenes viscolactis = test: agar-diffusion method; assay type: cell-based
Description: The testing of samples can be carried out by the well known agar-diffusion method on Petri dishes or on plates.

Salmonella panama = test: broth dilution test, minimum inhibitory concentration; assay type: cell-based; details: Salmonella enterica, about 20 hours at 35° C, tested as monoammonium salt
Salmonella typhimurium = test: as above; assay type: cell-based; details: Salmonella enterica, about 20 hours at 35° C, tested as monoammonium salt

Question: Which results are given for CC1(C)S[C@@H]2[C@H](NC(=O)CSC[C@@H](N)C(=O)O)C(=O)N2[C@H]1C(=O)O [RIT D-2214, 6-(D)-{[(2-amino-2-carboxy)-ethylthio]-acetamido}-penicillanic acid]?
Answer: MIC (Salmonella anatum): 0.6 µg/mL; MIC (Aerobacter aerogenes): 1.25 µg/mL (≈ 3.31 µM); ED50 [1]: 13.5 mg/kg; ED50 [2]: < 11 mg/kg; ED50 (Escherichia coli 47): < 10 mg/kg; ED50 (Escherichia coli 9): 10.9 mg/kg; ED50 (Proteus mirabilis 11): < 10 mg/kg; ED50 (Salmonella panama 20): < 10 mg/kg; ED50 ([3]; oral with calcium carbonate): 25.3 mg/kg; ED50 ([3]; sc, s.c.): < 11 mg/kg; ED50 [4]: 13 mg/kg; ED50 [5]: 22.7 mg/kg; ED50 (Shigella flexneri 25): 52.5 mg/kg; concentration at 5 min (in vivo [6]): 13000 ng/mL; concentration at 0.25 h (in vivo [6]): 15000 ng/mL; concentration at 0.5 h (in vivo [6]): 10000 ng/mL; concentration at 1 h (in vivo [6]): 6000 ng/mL; MIC (Corynebacterium xerosis): < 0.02 µg/mL; MIC (Pseudomonas aeruginosa): 80 µg/mL; in vivo activity ([7]; Gram-positive and Gram-negative microorganisms): exhibits in vivo activity; efficacy when administered orally ([7]; oral): less advantageous when administered orally; concentration at 5 min (in vivo [8]): 12000 ng/mL; concentration at 0.25 h (in vivo [8]): 23000 ng/mL; concentration at 0.5 h (in vivo [8]): 17000 ng/mL; concentration at 1 h (in vivo [8]): 12000 ng/mL; concentration at 2 h (in vivo [8]): 7500 ng/mL; MIC [9]: 80 µg/mL; stability under acid conditions (physchem): relatively stable under acid conditions; half-life (physchem; reconstituted gastric juice, pH 1.3): 25 min; concentration at 0.25 h (in vivo [10]): 18000 ng/mL; concentration at 0.5 h (in vivo [10]): 23000 ng/mL; concentration at 1 h (in vivo [10]): 22500 ng/mL; concentration at 2 h (in vivo [10]): 9000 ng/mL; MIC [11]: 0.6 µg/mL; inhibitory activity against the growth of bacteria [12]: exhibits inhibitory activity; MIC (Salmonella meleagridis): 0.6 µg/mL; MIC (Vibrio el tor): 0.6 µg/mL; MIC (Salmonella paratyphi): 1.25 µg/mL (≈ 3.31 µM); sensitivity of Alcaligenes viscolactis (Alcaligenes viscolactis): very high sensitivity; MIC (Salmonella panama): 40 µg/mL; MIC (Salmonella typhimurium): 40 µg/mL
